Results on 90 compounds are retold here after PubChem BioAssay AID434951 (Broad Institute, 2010).

Each structure is given as a SMILES string. Activity calls are given as the source filed them.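 The calls were made as follows: active = a fitted half-maximal concentration EC50 for the rise in nuclear signal no higher than ten times the top dose tested; inconclusive = flat fit with activity between 30% and 70%, or unusable fit; inactive = EC50 beyond ten times the top dose.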

Chain of Hypoxia-inducible factor 1-alpha (Homo sapiens) (Q16665 whole entry, looked up): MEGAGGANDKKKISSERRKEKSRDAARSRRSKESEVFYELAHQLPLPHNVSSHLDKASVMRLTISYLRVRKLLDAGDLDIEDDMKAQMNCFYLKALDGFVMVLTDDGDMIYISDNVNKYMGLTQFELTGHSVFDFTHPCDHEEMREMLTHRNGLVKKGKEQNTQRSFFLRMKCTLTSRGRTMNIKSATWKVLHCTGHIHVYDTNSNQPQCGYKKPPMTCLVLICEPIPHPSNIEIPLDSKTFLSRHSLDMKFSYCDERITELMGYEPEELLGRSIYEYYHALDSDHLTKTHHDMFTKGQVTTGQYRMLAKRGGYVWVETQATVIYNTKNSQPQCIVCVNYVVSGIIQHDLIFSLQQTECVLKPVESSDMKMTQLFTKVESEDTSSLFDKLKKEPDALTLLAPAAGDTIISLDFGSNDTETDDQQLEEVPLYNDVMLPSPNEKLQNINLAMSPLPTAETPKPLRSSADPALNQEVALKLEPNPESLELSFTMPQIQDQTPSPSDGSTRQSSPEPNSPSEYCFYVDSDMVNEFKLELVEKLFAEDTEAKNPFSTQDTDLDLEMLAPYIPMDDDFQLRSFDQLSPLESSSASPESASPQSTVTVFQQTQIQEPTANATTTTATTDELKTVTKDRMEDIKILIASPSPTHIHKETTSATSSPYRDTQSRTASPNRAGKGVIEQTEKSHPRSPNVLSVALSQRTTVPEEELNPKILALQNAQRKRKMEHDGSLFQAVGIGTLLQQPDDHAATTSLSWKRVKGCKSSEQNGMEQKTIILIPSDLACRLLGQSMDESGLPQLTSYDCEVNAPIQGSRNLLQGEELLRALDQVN

This test addresses Hypoxia-inducible factor 1-alpha (Homo sapiens) (UniProt Q16665). The test is described as follows: HIF pathway activation, GFP-HIF1alpha translocation – imaging, fluorescence, U2OS GFP-HIF1alpha, confirmation (AID 434951). The settings on record: U2OS GFP-HIF1alpha nuclear intensity, high-content imaging.
For the compound `Nc1ccnn1-c1ccccc1`, the EC50 (commonly the midpoint of the concentration-response curve) was > 35 µM (inactive). With `CCN(CC)c1ccc(/C=N/NC(=O)c2ccc3nc[nH]c3c2)c(O)c1` the figure was 10.5 µM. The same measure for `CC(C)(C)NC(=O)COC(=O)c1ccc(Cl)nc1`: > 35 µM (inactive); for `O=C(Nc1ncccc1O)c1ccc(S(=O)(=O)Nc2ccccc2)cc1`: 9.18 µM. For the compound `COc1cccc(/C=N/Nc2ccc([N+](=O)[O-])cn2)c1O`, the EC50 was 4.93 µM. `CC1CCN(S(=O)(=O)c2ccc3c4c2CC(=O)N4CC(C)S3)CC1` (stereo not given): the EC50 was > 35 µM (inactive).

As to `COc1cccc(/C=N/NC(=O)c2c(C)nc3ccc(Br)cn23)c1O`, the EC50 was 5.52 µM. `Cc1ccc(CN2[C@@H](CC(C)C)COCCS2(=O)=O)cc1`: the EC50 is > 35 µM (inactive). Take `CCCCOc1ccc(C(=O)NCC(=O)OC2CCOC2=O)cc1` (stereo not given): the half-maximal effective concentration (EC50) was 34.7 µM. On to `CC(=O)NC(c1ccc2ccccc2c1)c1ccc2cccnc2c1O` (stereo not given), for which the EC50 is 8.56 µM. `COc1ccc(C(=O)Nc2ccc(C(=O)NCCc3ccc(OC)c(OC)c3)cc2)cc1`: the EC50 was > 35 µM (inactive).

`CCOC(=O)c1[nH]cnc1N=Nc1c(O)ccc2ccccc12`: the EC50 is 2.2 µM. With `O=C(/C=C/c1ccccc1)NCCc1nc2ccccc2[nH]1`, the EC50 was > 35 µM (inactive).

In the case of `COc1ccc(CN(C)CC(=O)Nc2ccc(SC(F)F)cc2)cc1OC`, the EC50 is > 35 µM (inactive). With `Oc1ccccc1/C=N/Nc1nc2ccccc2o1`, the EC50 was 8.18 µM. The same measure for `CCOC(=O)CN1C(=N)N(c2nc(NC(C)C)nc(NC(C)C)n2)CC1=O`: > 35 µM (inactive). For `Cc1ccc(-c2cc(C(F)(F)F)n3nc(C(=O)Nc4c(C)n(C)n(-c5ccccc5)c4=O)cc3n2)cc1`, the EC50 was > 35 µM (inactive). In the case of `COc1ccc(C)cc1NC(=O)c1ccc(N(C)S(C)(=O)=O)cc1`, the EC50 is > 35 µM (inactive). On to `CC1CN/C(=C\C(=O)c2ccc(Br)cc2)C(=O)N1` (stereo not given), for which the EC50 is > 35 µM (inactive). The same measure for `COC(=O)/C(C#N)=C/c1c(N2CCN(Cc3ccc4c(c3)OCO4)CC2)nc2c(C)cccn2c1=O`: > 35 µM (inactive); for `O=C(N/N=C/c1ccccn1)c1ccc(Br)cc1`: 12.2 µM.

On to `COc1ccc2cc3c(N)nn(C(=O)Cc4c[nH]c5ccccc45)c3nc2c1`, for which the EC50 was > 35 µM (inactive).

On to `CC(C)c1ccc2oc(=O)cc(CN3CCOCC3)c2c1`, for which the EC50 is > 35 µM (inactive). The same measure for `COc1ccc(/C=N/NC(=O)c2ccccc2O)cc1CSc1ccccn1`: > 35 µM (inactive). On to `CCCNC(=O)c1cc(-c2ccco2)on1`, for which the concentration giving a half-maximal response (EC50) is 5.66 µM.

In the case of `COc1cc2c(cc1OC)C(c1ccccc1)N(S(C)(=O)=O)CC2` (stereo not given), the EC50 is > 35 µM (inactive). `CC(=O)c1cccc(NS(=O)(=O)c2ccc(-c3cc(C)no3)s2)c1`: the EC50 is > 35 µM (inactive).

`CCCCC(=O)N1CCN(c2nc3ccc(F)cc3s2)CC1`: the EC50 is > 35 µM (inactive).

Regarding `Cn1nc(C(F)(F)F)cc1C(=O)NC1CCCCCC1`, the EC50 was > 35 µM (inactive).

Take `Oc1ccc2ccccc2c1N=Nc1nccs1`: the 50% effective concentration (EC50) is 5.74 µM. As to `Cc1ccc(NC(=O)Cn2cnc3c(=O)n(C)c(=O)n(C)c32)c(C)c1`, the EC50 is > 35 µM (inactive). On to `COc1ccc(N/N=C/c2c(C(=O)O)ccc3ccccc23)cc1`, for which the EC50 was 6.81 µM. With `CC(C)[C@H](NC(=O)c1ccco1)C(=O)OCc1cc(=O)n2c(n1)sc1ccccc12` the figure was > 35 µM (inactive); with `CCCCC(=O)NC(c1cccs1)c1cc(Cl)c2cccnc2c1O` (stereo not given), > 35 µM (inactive); with `CCn1ccnc1C(O)c1ccccc1OC` (stereo not given), > 35 µM (inactive). Consider `CCc1ccc(NC(=O)CSc2ccc(-c3ccccn3)nn2)cc1`, for which the 50% effective concentration (EC50) was 10.5 µM. Consider `Cc1cccc(OCC(=O)NCC(=O)N/N=C/c2cccnc2)c1`, for which the EC50 was > 35 µM (inactive). `Cc1ccc(S(=O)(=O)/N=C2/NC(=O)/C(=C/c3cc([N+](=O)[O-])ccc3O)S2)cc1`: the EC50 is > 35 µM (inactive). As for `S=c1[nH]nc(-c2ccco2)n1/N=C/c1cccs1`, the EC50 was > 35 µM (inactive). With `O=c1[nH]c(C2CCN(S(=O)(=O)c3ccc(C(F)(F)F)cc3)CC2)nc2c1nnn2Cc1ccc(F)cc1`, the EC50 is > 35 µM (inactive). Regarding `OCCC#Cc1ccc(CN2CCN(Cc3ccccc3)C(CCO)C2)cc1` (stereo not given), the EC50 was > 35 µM (inactive). As to `CCN(CCN(C)C)C(=O)C1CCN(S(=O)(=O)c2c(C)noc2/C=C/c2ccccc2F)CC1`, the concentration for a half-maximal effect (EC50) is 10.4 µM. On to `Cc1ccc2nc(N3CCN(C)CC3)[nH]c2c1`, for which the EC50 was > 35 µM (inactive). Turning to `COc1ccc(CC(=O)Nc2cccc(-c3nnc(-c4ccccc4)o3)c2)cc1OC`, the EC50 was > 35 µM (inactive). For the compound `COc1ccc(C(=O)CCNc2ccc(F)cc2)cc1`, the EC50 was > 35 µM (inactive). Turning to `CCOC(=O)c1c(C)nc2cc(C)ccn12`, the EC50 was > 35 µM (inactive).

With `Oc1ccc(Cl)cc1CNCC1CCCO1` (stereo not given), the EC50 is > 35 µM (inactive). As for `O=C(c1cc(Br)ccc1Cl)N1CCC2(CC1)OCCO2`, the EC50 is > 35 µM (inactive).

As to `CCCOc1ccc(/C=N/NC(=O)CSc2ccccn2)cc1OC`, the EC50 was > 35 µM (inactive). With `C/C(=N\NC(=O)c1nnn(-c2nonc2N)c1-c1ccccc1)c1ccccc1O` the figure was 11.1 µM. The same measure for `COc1ccc(/C=N/NC(=O)c2nc(-c3ccccc3)n(-c3ccccc3)n2)c(O)c1`: 25.4 µM. The same measure for `OCCCNc1c2ccccc2nc2ccccc12`: > 35 µM (inactive); for `CCOc1ccc(N2CC(C(=O)Nc3ccccc3C(=O)NC3CC3)CC2=O)cc1` (stereo not given): > 35 µM (inactive); for `CCN(CC)CCOc1ccc2c(c1)C(=NO)c1cc(OCCN(CC)CC)ccc1-2`: > 35 µM (inactive). Turning to `Cc1cccc(NC(=O)C2CC(=O)NC(Nc3nc4ccccc4s3)=N2)c1` (stereo not given), the EC50 was > 35 µM (inactive). On to `FC(F)(F)c1ccc2c(c1)NP(=S)(N1CCOCC1)c1nccn1-2` (stereo not given), for which the EC50 was > 35 µM (inactive).

For the compound `COc1cc(/C=C/C(=O)c2ccc3c(c2)OCCO3)cc(Br)c1OCC(=O)N(C)C`, the EC50 was > 35 µM (inactive). Turning to `O=C(COC(=O)c1cccc(S(=O)(=O)N2CCOCC2)c1)Nc1ncc(C(F)(F)F)cc1Cl`, the EC50 was > 35 µM (inactive). On to `CN(C)c1ccc(S(=O)(=O)NCC(=O)OCC(=O)Nc2cc(Cl)cc(Cl)c2)cc1[N+](=O)[O-]`, for which the EC50 is > 35 µM (inactive). With `O=C(NCCCN1CCOCC1)c1cc(-c2cccs2)on1`, the 50% effective concentration (EC50) was 12.3 µM. For the compound `O=C(O)c1cccnc1SCc1ccccc1Cl`, the EC50 is > 35 µM (inactive).

Take `COc1ccc(NC(=O)c2cccc(NC(=O)c3ccco3)c2)c(OC)c1`: the EC50 is > 35 µM (inactive). As to `O=C(O)c1ccccc1OCCOc1ccccc1C(=O)O`, the EC50 is > 35 µM (inactive). The same measure for `COc1cccc(NC(=S)N(CCCN2CCOCC2)Cc2cn(C)c3ccccc23)c1`: > 35 µM (inactive); for `COc1cc(C(=O)Oc2ccccc2/C=N/NC(=O)c2ccc(Cl)cc2)cc(OC)c1OC`: 35.8 µM; for `CN(C)CCCN(C(=O)CCS(=O)(=O)c1ccccc1)c1nc2cc3c(cc2s1)OCO3`: > 35 µM (inactive).

`Cc1cc(C)[n+](Cc2ccccc2)cc1C(N)=O`: the EC50 is > 35 µM (inactive). On to `COc1ccccc1CNC(=O)c1cccc(NC(=O)c2ccccc2)c1`, for which the EC50 is > 35 µM (inactive).

For `CCOC(=O)C1CCCN(C(=O)c2ccc3nc(-c4ccccc4)c(-c4ccccc4)nc3c2)C1` (stereo not given), the EC50 is > 35 µM (inactive). The same measure for `Cc1ccc(-n2cc(CN3CCC(CO)(Cc4ccccc4)CC3)cn2)cc1`: > 35 µM (inactive).

Turning to `COc1ccc(N(CC(=O)Nc2cc(OC)ccc2OC)S(=O)(=O)c2c(C)noc2C)cc1`, the EC50 was > 35 µM (inactive). Turning to `CC(C)COc1ccc(C(=O)Nc2ccc([N+](=O)[O-])cc2)cc1`, the EC50 was > 35 µM (inactive). As to `Cc1ccc(NC(=S)N/C(=N/S(=O)(=O)c2ccccc2)c2ccccc2)cc1`, the EC50 is > 35 µM (inactive). Consider `O=[N+]([O-])c1ccc(OCCCCN2CCCCC2)cc1`, for which the EC50 was > 35 µM (inactive). Turning to `Cc1ccc(-c2csc3nc(SCC(=O)N(C)C)n(Cc4ccccc4)c(=O)c23)cc1`, the concentration giving a half-maximal response (EC50) was 5.26 µM. Turning to `COc1ccc(OC)c2sc(N3CCN(C(=O)c4ccc5ncsc5c4)CC3)nc12`, the EC50 was > 35 µM (inactive).

Consider `O=C(CN1CCC(C(=O)c2ccc(Cl)cc2)CC1)Nc1ccc2c(c1)OCCO2`, for which the EC50 is > 35 µM (inactive). For the compound `CCN(CC)S(=O)(=O)c1ccc(N/N=C/c2cc(OC)ccc2O)nc1`, the concentration for a half-maximal effect (EC50) is 4.31 µM. Turning to `CCOC(=O)CN(C(=O)COc1nc(C)cc(C)c1C#N)c1cccc(Cl)c1`, the EC50 was > 35 µM (inactive). As for `O=C(N/N=C/c1cc(Br)ccc1O)C(c1ccncc1)N1CCOCC1` (stereo not given), the EC50 is > 35 µM (inactive). For the compound `Cc1cc(C)cc(N(CC(=O)Nc2ccccc2C(=O)N2CCOCC2)S(C)(=O)=O)c1`, the EC50 is > 35 µM (inactive).

Turning to `CCCn1c(=NC(=O)c2c(-c3c(F)cccc3Cl)noc2C)c(C(=O)OCC)cc2c(=O)n3ccccc3nc21`, the EC50 is 22.2 µM.

With `Oc1ccc(CN2CCN(Cc3ccccc3)CC2)c2cccnc12`, the EC50 was > 35 µM (inactive). Take `FC(F)(F)c1ccc(CSc2ccccn2)cc1`: the EC50 is > 35 µM (inactive). On to `Cc1cc(C)n(-c2ccc3cccc(NS(C)(=O)=O)c3n2)n1`, for which the EC50 was 5.59 µM. In the case of `Cc1ccc(C(=O)NC(=S)NNS(=O)(=O)c2ccc(C)cc2)cc1`, the EC50 was > 35 µM (inactive).

`Oc1ccccc1N=Nc1ccccc1O`: the EC50 is 2.01 µM. `CC(C)c1onc(C(=O)Nc2sc3c(c2C#N)CCC3)c1[N+](=O)[O-]`: the EC50 is > 35 µM (inactive). The same measure for `O=C(N/N=C/c1c(O)ccc2ccccc12)c1ccc(Br)o1`: 12.3 µM. With `COc1ccc2nc(C)cc(SCC(=O)N/N=C/c3ccc(O)cc3O)c2c1`, the concentration for a half-maximal effect (EC50) was 8.74 µM.
